Results from patent publication EP1012175B1, “A PEPTIDE WITH AN AFFINITY FOR CLOTTING FACTOR VIII” (Octapharma AG, priority 1997, dated 2003).
“Also recorded” adds a separate entry of the source.

Legend:
[1] = tested on: pdFVIII (Faktor VIII aus Plasma); test: Membrane spot binding test: immobilised peptides incubated with plasma-derived factor VIII (Octavi), detected with anti-FVIII antibodies; design: species or system human; settings: peptide immobilised on membrane; Octavi 240 Units in 10 ml PBS pH 7.0 with 1% BSA, 2 h; binders appear as coloured spots
Procedure: (§1) Die Peptide Seq. Id. No. 55 bis 90 wurden auf einer Membran immobilisiert. Nach Äquilibrieren mit PBS Puffer pH 7.0 wurde eine Membran mit Faktor VIII Octavi® (240 Units in 10 ml PBS pH 7.0 mit 1% BSA), eine andere mit Kogenate® (250 U in 10 ml PBS, pH 7.0 mit 1% BSA) und eine nur mit PBS, pH 7.0 mit 1% BSA für zwei Stunden inkubiert. Die mit den Peptiden besetzten Membranen wurden sorgfältig mit PBS Puffer pH 7.0 gewaschen und anschließend mit den Anti-FVIII Antikörpern (Chemicon International Inc., MAB038, Sera-Lab MAS 530, MAS 531, MAS 532) für eine Stunde versetzt. Nach Waschen und Inkubieren mit Anti-Maus-IgG/alkalische Phosphatase Konjugat (1:1000, Sigma Chemicals, A-4338) wurde mit Hilfe von NBT und BCIP in 0,1 M Trispuffer, pH 9,2, entwickelt. Faktor VIII bindende Peptide erschienen als gefärbte Spots. Die Kontrollmembran (nur mit PBS pH 7.0 ohne Faktor VIII) wurde mit den beiden anderen verglichen.

[2] = tested on: rekombinanten Faktor VIII; test: Membrane spot binding test: immobilised peptides incubated with recombinant factor VIII (Kogenate), detected with anti-FVIII antibodies; settings: peptide immobilised on membrane; Kogenate 250 U in 10 ml PBS pH 7.0 with 1% BSA, 2 h; binders appear as coloured spots
Procedure: as §1

[3] = tested on: rekombinantem Faktor VIII aus Kogenate®; test: Affinity chromatography of recombinant factor VIII (Kogenate) on peptide membranes; eluates analysed by Western blot; format: binding; settings: for Western Blot der Eluate: eluate of rFVIII (Kogenate) run, control membrane also positive; for Elutionspeak: rFVIII (Kogenate), elution with 0,1 M Glycin pH 3.0, compared with ßAla-ßAla control membrane
Source text: (§2) Aus Membranen, auf die die jeweiligen Peptide immobilisiert wurden, wurden jeweils 30 Scheiben mit einem Durchmesser von 11 mm ausgestanzt. Diese wurden in eine HR 10 Säule (Pharmacia Biotechnology, Uppsala, Schweden) gepackt und zwischen zwei Stempeln fixiert.
(§3) Für alle chromatographischen Experimente wurde das Chromatographiesystem ProSys (Biosepra Inc. Marlborough, USA) verwendet.
(§4) PBS Puffer pH 7.0 wurde als Äquilibrierungs- und Waschpuffer verwendet. Für die Elution wurde ein 0,1 M Glycinpuffer pH 3.0 angewandt. Die Flußgeschwindigkeit betrug bei allen Versuchen 0,1 ml/min.
Die Bindung von rekombinantem Faktor VIII wurde mittels Kogenate® (Firma Bayer) untersucht. Jeweils 400 µl des Präparates (200 Units) wurden mit 1.400 µl destilliertem Wasser verdünnt und anschließend mit einer Flußrate von 0,1 ml/min auf den Affinitätsträger aufgetragen. Das Waschen erfolgte wiederum mit PBS, pH 7.0 und die darauf folgende Elution mit 0,1 M Glycin, pH 3.0. Die Fraktionen wurden mittels SDS-Page unter reduzierenden Bedingungen und Western-Blot analysiert.
(§5) Der Durchlauf und die Eluate aller Läufe wurden gesammelt und mittels SDS-PAGE unter reduzierenden Bedingungen und Western-Blot analysiert.
Für die Auftrennung wurden 4 bis 20% Tris-Glycin Gele von Novex verwendet. […] Nach der Trennung wurden die Gele silbergefärbt und eingescannt.
Nach Beendigung der elektrophoretischen Trennung wurden die Gele auf eine Nitrocellulose Membran bei 200 mA konstant für zwei Stunden elektrogeblottet. Anschließend wurde die Membran mit PBS + 3% BSA für zwei Stunden blockiert. […] Die Entwicklung erfolgte mit 0,1 M Tris, pH 9.2, NBT und BCIP.
(§6) Die Affinitätschromatographie wurde wie im Beispiel 1 beschrieben, durchgeführt.

pdFVIII = test: Affinity chromatography of pdFVIII on peptide membranes; eluates analysed by SDS-PAGE and Western blot; format: binding, human; settings: for Banden in der SDS-PAGE unter reduzierenden Bedingungen und Silberfärbung / Western Blot des Eluates: eluate of pdFVIII run; for Banden in der SDS-PAGE unter reduzierenden Bedingungen und Silberfärbung / Elutionspeak: compared with (βAla)2 control membrane; for Western Blot des Eluates: control membrane weakly positive; for Eignung für die Affinitätschromatographie von pdFVIII: general statement of the description; for Elutionspeak: pdFVIII, elution with 0,1 M Glycin pH 3.0
Source text: as §2, §3, §4
Lyophilisierter Faktor VIII aus Plasma wurde in 11 ml destilliertem Wasser zu einer Konzentration von 90 Units/ml aufgelöst. Davon wurden jeweils 4 ml mit einer Flußrate von 0,1 ml/min aufgetragen. Anschließend wurden die Affinitätsträger mit PBS-Puffer pH 7.0 gewaschen bis das UV Signal (280 nm) wieder die Basislinie erreichte. Das gebundene Material wurde mit 0,1 M Glycin pH 3.0 eluiert. Die gesammelten Fraktionen wurde mittels SDS-Page unter reduzierenden Bedingungen und Western Blot analysiert. Auf diese Weise wurden Peptide und der ßAla-ßAla-Blank auf ihre Fähigkeit Faktor VIII aus dem Octavipräparat zu binden untersucht.
as §5
Für die Auftrennung wurden 4 bis 20% Tris-Glycin Gele von Novex verwendet. Die Proben wurden mit SDS-Probepuffer (1,5 M Tris HCl pH 8.45, 1,2 ml Glycerin, 0,4 g SDS, 0,1% Coomassie Blue, 0,1% Phenol Rot pro 10 ml), und 5% ß-Mercaptoethanol versetzt und über Nacht bei 4°C inkubiert. Nach der Trennung wurden die Gele silbergefärbt und eingescannt.
Nach Beendigung der elektrophoretischen Trennung wurden die Gele auf eine Nitrocellulose Membran bei 200 mA konstant für zwei Stunden elektrogeblottet. Anschließend wurde die Membran mit PBS + 3% BSA für zwei Stunden blockiert. Nach Waschen mit PBS Puffer erfolgte die Zugabe der Anti-FVIII Antikörpermischung (Chemicon International Inc., MAB038, Sera-Lab MAS 530, MAS 531, MAS 532) für zwei Stunden. Nach Waschen mit PBS wurde mit Anti Maus IgG alkalische Phosphatase (1:1000, Sigma Chemicals, A-3438) für eine Stunde inkubiert. Die Entwicklung erfolgte mit 0,1 M Tris, pH 9.2, NBT und BCIP.
as §6

61 (VMKSCEYC) [compound 61]
Bindung zu pdFVIII (Faktor VIII aus Plasma) [1]: Bindung zu pdFVIII | Bindung von rekombinantem Faktor VIII [2]: keinen rekombinanten Faktor VIII

66 (VMKSWEEF) [compound 66]
Bindung zu pdFVIII (Faktor VIII aus Plasma) [1]: auffallende Affinität; also recorded: Bindung zu pdFVIII | Bindung von rekombinantem Faktor VIII [2]: auffallende Affinität; also recorded: binden rekombinanten Faktor VIII | Western Blot der Eluate [3]: positiv | Eignung für die Affinitätschromatographie von rFVIII (rekombinantem Faktor VIII) ([3]; general statement of the description): eignen sich insbesondere | Elutionspeak [3]: deutlich größer | Banden in der SDS-PAGE unter reduzierenden Bedingungen und Silberfärbung (pdFVIII): intensiver gefärbte Banden | Western Blot des Eluates (pdFVIII): positiv | Eignung für die Affinitätschromatographie von pdFVIII (pdFVIII): eignen sich insbesondere | Elutionspeak (pdFVIII): größere Elutionspeaks

68 (EWIKCEEF) [compound 68]
Bindung von rekombinantem Faktor VIII [2]: binden rekombinanten Faktor VIII

71 (EWIKWEYC) [compound 71]
Bindung zu pdFVIII (Faktor VIII aus Plasma) [1]: Bindung zu pdFVIII | Bindung von rekombinantem Faktor VIII [2]: binden rekombinanten Faktor VIII

72 (EWIKWEEF) [compound 72]
Bindung zu pdFVIII (Faktor VIII aus Plasma) [1]: auffallende Affinität; also recorded: Bindung zu pdFVIII | Bindung von rekombinantem Faktor VIII [2]: auffallende Affinität; also recorded: binden rekombinanten Faktor VIII | Banden in der SDS-PAGE unter reduzierenden Bedingungen und Silberfärbung (pdFVIII): intensiver gefärbte Banden | Western Blot des Eluates (pdFVIII): positiv | Eignung für die Affinitätschromatographie von pdFVIII (pdFVIII): eignen sich insbesondere | Elutionspeak (pdFVIII): größere Elutionspeaks

76 (EWKSEFEF) [compound 76]
Bindung zu pdFVIII (Faktor VIII aus Plasma) [1]: Bindung zu pdFVIII

77 (EWKSWEYC) [compound 77]
Bindung zu pdFVIII (Faktor VIII aus Plasma) [1]: Bindung zu pdFVIII

78 (EWKSWEEF) [compound 78]
Bindung zu pdFVIII (Faktor VIII aus Plasma) [1]: auffallende Affinität; also recorded: Bindung zu pdFVIII | Bindung von rekombinantem Faktor VIII [2]: auffallende Affinität

84 (EYIKWEEF) [compound 84]
Bindung zu pdFVIII (Faktor VIII aus Plasma) [1]: auffallende Affinität | Bindung von rekombinantem Faktor VIII [2]: auffallende Affinität

89 (EYKSWEYC) [compound 89]
Bindung zu pdFVIII (Faktor VIII aus Plasma) [1]: auffallende Affinität; also recorded: Bindung zu pdFVIII | Bindung von rekombinantem Faktor VIII [2]: auffallende Affinität

EYKSWEEF [Seq. Id. No. 90, Peptid, 8 Aminosäuren]
Bindung zu pdFVIII (Faktor VIII aus Plasma) [1]: auffallende Affinität; also recorded: Bindung zu pdFVIII | Bindung von rekombinantem Faktor VIII [2]: auffallende Affinität | Western Blot der Eluate [3]: positiv | Elutionspeak [3]: deutlich größer
